Experimental data: patent US20140023611A1 (priority 2010, published 2014)

Biological target: T1, rat NaP2b (SLC34A2) (Rattus norvegicus, UniProt Q9JJ09)
T1 construct: host or cells: HEK293
T1 sequence (Q9JJ09 1-695): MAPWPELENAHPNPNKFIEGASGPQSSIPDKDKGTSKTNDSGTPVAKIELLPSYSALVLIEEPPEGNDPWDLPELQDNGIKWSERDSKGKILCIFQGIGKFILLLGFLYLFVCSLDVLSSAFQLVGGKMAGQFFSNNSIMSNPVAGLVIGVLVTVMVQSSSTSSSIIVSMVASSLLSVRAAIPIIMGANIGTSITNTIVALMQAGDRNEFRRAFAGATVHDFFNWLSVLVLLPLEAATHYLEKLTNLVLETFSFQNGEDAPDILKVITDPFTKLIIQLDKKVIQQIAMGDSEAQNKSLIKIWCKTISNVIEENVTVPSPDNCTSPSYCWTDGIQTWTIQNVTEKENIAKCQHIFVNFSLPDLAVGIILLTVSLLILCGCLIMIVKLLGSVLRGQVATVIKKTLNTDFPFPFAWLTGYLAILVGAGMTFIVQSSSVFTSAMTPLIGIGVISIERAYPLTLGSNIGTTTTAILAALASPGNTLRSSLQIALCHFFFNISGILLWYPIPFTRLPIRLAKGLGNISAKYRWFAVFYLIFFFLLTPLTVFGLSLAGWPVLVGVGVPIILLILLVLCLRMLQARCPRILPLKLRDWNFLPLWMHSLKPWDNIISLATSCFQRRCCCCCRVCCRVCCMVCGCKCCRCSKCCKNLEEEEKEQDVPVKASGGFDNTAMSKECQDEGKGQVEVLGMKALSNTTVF
Test: Inhibition of NaP2b-mediated Pi (33P) uptake in transfected HEK293 cells, rat NaP2b
Assay type: cell-based
Conditions: 33P Pi uptake, 0.1 mM phosphate, value given as pIC50 range
In short: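 The cells transiently expressed NaP2b after Lipofectamine transfection. Each compound was run in duplicate over twelve concentrations, 0.1 nM–30 uM.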

| Compound | IC50 |
| --- | --- |
| Cc1ccc(CNc2cc(-c3cc(N4CCCCC4)ccc3NC(=O)c3cccc(CSCCC(=O)O)c3)ncn2)cc1C [Example 3.4, 3-((3-((2-(6-((3,4-Dimethylbenzyl)amino)pyrimidin-4-yl)-4-(piperidin-1-yl)phenyl)carbamoyl)benzyl)thio)propanoic acid] | 10 to 31.6 µM |
| CN1CCN(CCN(C)Cc2cccc(C(=O)Nc3ccc(N4CCCCC4)cc3-c3cc(C(=O)NCc4cccc(C(F)(F)F)c4)ccn3)n2)CC1 [Example 61, 6-((Methyl(2-(4-methylpiperazin-1-yl)ethyl)amino)methyl)-N-(4-(piperidin-1-yl)-2-(4-((3-(trifluoromethyl)benzyl)carbamoyl)pyridin-2-yl)phenyl)picolinamide] | 10 to 31.6 µM |
| CN(CCN1CCN(S(C)(=O)=O)CC1)Cc1cccc(C(=O)Nc2ccc(N3CCCCC3)cc2-c2cc(C(=O)NCc3cccc(C(F)(F)F)c3)ccn2)n1 [Example 62, 6-((Methyl(2-(4-(methylsulfonyl)piperazin-1-yl)ethyl)amino)methyl)-N-(4-(piperidin-1-yl)-2-(4-((3-(trifluoromethyl)benzyl)carbamoyl)pyridin-2-yl)phenyl)picolinamide] | 10 to 31.6 µM |
| CN(CCN1CCOCC1)C(=O)c1cccc(C(=O)Nc2ccc(N3CCC(C)(C)CC3)cc2-c2cc(C(=O)NCc3cccc(C(F)(F)F)c3)ccn2)c1 [Example 108] | 10 to 31.6 µM |
| COC[C@H]1CCCN1c1ccc(NC(=O)c2cccc(C(=O)N(C)CCN3CCOCC3)c2)c(-c2cc(C(=O)NCc3cccc(C(F)(F)F)c3)ccn2)c1 [Example 103] | 10 to 31.6 µM |
| O=C(O)CCSCc1cccc(C(=O)Nc2ccc(N3CCCCC3)cc2-c2cc(NCc3cccc(C(F)(F)F)c3)ccn2)c1 [Example 69, 3-((3-((4-(Piperidin-1-yl)-2-(4-((3-(trifluoromethyl)benzyl)amino)pyridin-2-yl)phenyl)carbamoyl)benzyl)thio)propanoic acid] | 10 to 31.6 µM |
| O=C(O)CC1CCN(C(=O)c2cccc(C(=O)Nc3ccc(N4CCCCC4)cc3-c3cc(C(=O)NCc4cccc(C(F)(F)F)c4)ccn3)c2)CC1 [Example 4.31, 2-(1-(3-(4-(Piperidin-1-yl)-2-(4-(3-(trifluoromethyl)benzylcarbamoyl)pyridin-2-yl)phenylcarbamoyl)benzoyl)piperidin-4-yl)acetic acid] | 10 to 31.6 µM |
| CN(CCN1CCOCC1)C(=O)Nc1cccc(C(=O)Nc2ccc(N3CCCCC3)cc2-c2cc(C(=O)N[C@H]3CCCc4ccccc43)ccn2)c1 [Example 245, (S)-2-(2-(3-(3-methyl-3-(2-morpholinoethyl)ureido)benzamido)-5-(piperidin-1-yl)phenyl)-N-(1,2,3,4-tetrahydronaphthalen-1-yl)isonicotinamide] | 10 to 31.6 µM |
| CN1CCC(NC(=O)c2cccc(SCc3cccc(C(=O)Nc4ccc(N5CCCCC5)cc4-c4cc(C(=O)NCc5cccc(C(F)(F)F)c5)ccn4)c3)c2)CC1 [Example 10.4] | 10 to 31.6 µM |
| CC(C)OCCOc1ccc(NC(=O)c2cccc(C(=O)N(C)CCN3CCOCC3)c2)c(-c2cc(C(=O)NCc3cccc(C(F)(F)F)c3)ccn2)c1 [Example 101] | 1 to 7.94 µM |
| Cc1ccc(Cl)cc1CNC(=O)c1ccnc(-c2cc(N3CCCCC3)ccc2NC(=O)c2cccc(CSCCC(=O)O)c2)c1 [Example 1.17] | 1 to 7.94 µM |
| O=C(O)CCSCc1cccc(C(=O)Nc2ccc(N3CCCCC3)cc2-c2cc(C(=O)NCc3cccc(C(F)(F)F)c3F)ccn2)c1 [Example 1.31] | 1 to 7.94 µM |
| CCCN(CC)c1ccc(NC(=O)c2cccc(C(=O)N(C)CCN3CCOCC3)c2)c(-c2cc(C(=O)NCc3cccc(C(F)(F)F)c3)ccn2)c1 [Example 128, N1-(2-(4-((3-(trifluoromethyl)benzyl)carbamoyl)pyridin-2-yl)-4-(ethyl(propyl)amino)phenyl)-N3-methyl-N3-(2-morpholinoethyl)isophthalamide] | 1 to 7.94 µM |
| O=C(O)CCSCc1cccc(C(=O)Nc2ccc(N3CCCCC3)cc2-c2cc(C(=O)NCc3cc(F)cc(C(F)(F)F)c3)ccn2)c1 [Example 1.29] | 1 to 7.94 µM |
| COCCNC(=O)N1CCN(CCN(C)C(=O)c2cccc(C(=O)Nc3ccc(N4CCCCC4)cc3-c3cc(C(=O)NCc4cccc(C(F)(F)F)c4)ccn3)c2)CC1 [Example 207, N1-(2-(4-((2-methoxyethyl)carbamoyl)piperazin-1-yl)ethyl)-N3-(2-(4-((3-(trifluoromethyl)benzyl)carbamoyl)pyridin-2-yl)-4-(piperidin-1-yl)phenyl)-N1-methylisophthalamide] | 10 to 31.6 µM |

Other lines, results leading:

| IC50 | Compound |
| --- | --- |
| 1 to 7.94 µM | O=C(O)CCSCc1cccc(C(=O)Nc2ccc(N3CCCCC3)cc2-c2cc(C(=O)CCc3ccccc3)ccn2)c1 [Example 5.1, 3-((3-((2-(4-(3-Phenylpropanoyl)pyridin-2-yl)-4-(piperidin-1-yl)phenyl)carbamoyl)benzyl)thio)propanoic acid] |
| 1 to 7.94 µM | CC(=O)N1CCCN(Cc2cccc(C(=O)Nc3ccc(N4CCCCC4)cc3-c3cc(C(=O)NCc4cccc(C(F)(F)F)c4)ccn3)n2)CC1 [Example 59, 6-((4-Acetyl-1,4-diazepan-1-yl)methyl)-N-(4-(piperidin-1-yl)-2-(4-((3-(trifluoromethyl)benzyl)carbamoyl)pyridin-2-yl)phenyl)picolinamide] |
| < 1 µM | CCN(CC)c1ccc(NC(=O)c2cccc(C(=O)N(C)CCN(C)CCOCCOCCOCCNC(=O)c3cscn3)c2)c(-c2cc(C(=O)N[C@H]3CCCc4ccccc43)ccn2)c1 [Example 344, (S)—N-(4-(Diethylamino)-2-(4-(1,2,3,4-tetrahydronaphthalen-1-ylcarbamoyl)pyridin-2-yl)phenyl)-N^3-methyl-N^3-(14-methyl-1-oxo-1-(thiazol-4-yl)-5,8,11-trioxa-2,14-diazahexadecan-16-yl)isophthalamide] |
| 1 to 7.94 µM | O=C(NCc1cccc(C(F)(F)F)c1)c1ccnc(-c2cc(N3CCCCC3)ccc2NC(=O)c2cccc(C(=O)N3CCC(CCO)CC3)c2)c1 [Example 4.29] |
| 1 to 7.94 µM | CN(CCO)CCN(C)C(=O)c1cccc(C(=O)Nc2ccc(N3CCCCC3)cc2-c2cc(C(=O)NCc3cccc(C(F)(F)F)c3)ccn2)c1 [Example 4.21, N1-(2-((2-Hydroxyethyl)(methyl)amino)ethyl)-N1-methyl-N3-(4-(piperidin-1-yl)-2-(4-((3-(trifluoromethyl)benzyl)carbamoyl)pyridin-2-yl)phenyl)isophthalamide] |
| 1 to 7.94 µM | O=C(NCCN1CCOCC1)c1cccc(SCc2cccc(C(=O)Nc3ccc(N4CCCCC4)cc3-c3cc(C(=O)NCc4cccc(C(F)(F)F)c4)ccn3)c2)c1 [Example 10.6] |
| 1 to 7.94 µM | O=C(O)CCSCc1cccc(C(=O)Nc2ccc(N3CCCCC3)cc2-c2cc(C(=O)NCc3ccc4c(c3)OCCCO4)ccn2)c1 [Example 1.22] |
| 1 to 7.94 µM | CN(CCN1CCOCC1)C(=O)c1cccc(C(=O)Nc2ccc(C(F)(F)F)cc2-c2cc(C(=O)N[C@H]3CCCc4ccccc43)ccn2)c1 [Example 130, (S)—N1-methyl-N1-(2-morpholinoethyl)-N3-(2-(4-(1,2,3,4-tetrahydronaphthalen-1-ylcarbamoyl)pyridin-2-yl)-4-(trifluoromethyl)phenyl)isophthalamide] |
| < 1 µM | O=C(O)CCc1ccc(SCc2cccc(C(=O)Nc3ccc(N4CCCCC4)cc3-c3cc(C(=O)NCc4cccc(C(F)(F)F)c4)ccn3)c2)cc1 [Example 8.8] |
